US11708376B2 (VIRGINIA TECH INTELLECTUAL PROPERTIES, INC., priority 2018, dated 2023)

Each compound was assayed on whole cells (NMuLi, C2Cl2, and L6 cells, isolated cardiomyocytes, human primary fibroblasts) (assay: Oxygen consumption rate (OCR) in whole cells, Seahorse XF-24 Flux Analyzer). Details: cell type for Table 1 not stated, read-out: OCR Activity (increase in OCR), binned EC50.
Assay type: cell-based
Experimental: Biological activities of the compounds synthesized is determined by determining increase in oxygen consumption rate (OCR).
Oxygen consumption rate (OCR) in whole cells is measured in general accordance with the method of Kenwood B M et al. (Mol. Met. (2014) 3: 114-123).
OCR is measured using a Seahorse XF-24 Flux Analyzer (Seahorse Biosciences, North Billerica, Mass.). NMuLi, C2Cl2, and L6 cells are seeded in a Seahorse 24-well tissue culture plate at a density of 3.5×10^4 cells/well, isolated cardiomyocytes at a density of 4×10^4 cells/well, and human primary fibroblasts at a density of 1.1×10^4 cells/well. The cells are then allowed to adhere for 24 h. Prior to the assay, the media is changed to unbuffered DMEM containing pyruvate and glutamine (Gibco #12800-017, pH=7.4 at 37° C.) and the cells are equilibrated for 30 mins at 37° C. Compounds are injected during the assay and OCR is measured using 2 min measurement periods.
2-3 wells are used per condition and averaged over three plates (n=6-9). Statistical significance is determined by two-way ANOVA with Bonfenoni's posttest.
Activities are reported as binned EC50 values: A=5 μM or less; B=>5 to 20 μM; C=over 20 μM; NA=no effect.
COc1nc2[nH]c(C(F)(F)F)nc2nc1Nc1ccc(I)cc1 [Compound 2-30, 6-methoxy-N-(4-iodophenyl)-2-(trifluoromethyl)-1H-imidazo[4,5-b]pyrazin-5-amine] showed an EC50 of 5 to 20 µM. COc1nc2[nH]c(C(F)(F)F)nc2nc1Nc1ccccc1F [Compound 2-9, 6-methoxy-(2-fluorophenyl)-2-(trifluoromethyl)-1H-imidazo[4,5-b]pyrazin-5-amine] was tested, and the EC50 was 5 to 20 µM. For COc1nc2[nH]c(C(F)(F)F)nc2nc1Nc1ccc2ccccc2c1 [Compound 2-20, 6-methoxy-N-(naphthalen-2-yl)-2-(trifluoromethyl)-1H-imidazo[4,5-b]pyrazin-5-amine], the EC50 was 5 to 20 µM. For COc1nc2[nH]c(C(F)(F)F)nc2nc1Nc1cc(F)cc(F)c1 [Compound 2-15, 6-methoxy-N-(3,5-difluorophenyl)-2-(trifluoromethyl)-1H-imidazo[4,5-b]pyrazin-5-amine], the EC50 was > 20 µM. Work on COc1nc2[nH]c(C(F)(F)F)nc2nc1Nc1ccc(C(F)(F)F)cc1 [Compound 2-22, 6-methoxy-N-(4-(trifluoromethyl)phenyl)-2-(trifluoromethyl)-1H-imidazo[4,5-b]pyrazin-5-amine] yielded an EC50 of 5 to 20 µM. For COc1nc2[nH]c(C(F)(F)F)nc2nc1Nc1ccc(OC(F)(F)F)c(Br)c1 [Compound 2-44, N-(3-bromo-4-(trifluoromethoxy)phenyl)-6-methoxy-2-(trifluoromethyl)-1H-imidazo[4,5-b]pyrazin-5-amine], the EC50 was > 20 µM. With COc1nc2nc(C(F)(F)F)[nH]c2cc1Nc1ccccc1F [Compound 2-61, N-(2-fluorophenyl)-5-methoxy-2-(trifluoromethyl)-1H-imidazo[4,5-b]pyridin-6-amine] the EC50 was > 20 µM. FC(F)(F)COc1nc2[nH]c(C(F)(F)F)nc2nc1Nc1ccc(OC(F)(F)F)cc1 [Compound 2-36, 6-(2,2,2-trifluoroethoxy)-N-(4-(trifluoromethoxy)phenyl)-2-(trifluoromethyl)-1H-imidazo[4,5-b]pyrazin-5-amine] was tested, and the EC50 was ≤ 5 µM. Work on COc1nc2[nH]c(C(F)(F)F)nc2nc1Nc1cccc(F)c1F [Compound 2-16, 6-methoxy-N-(2,3-difluorophenyl)-2-(trifluoromethyl)-1H-imidazo[4,5-b]pyrazin-5-amine] yielded an EC50 of 5 to 20 µM. In the case of COc1nc2[nH]c(C(F)(F)F)nc2nc1Nc1cccc(C(F)(F)F)c1 [Compound 2-32, 6-methoxy-N-(3-(trifluoromethyl)phenyl)-2-(trifluoromethyl)-1H-imidazo[4,5-b]pyrazin-5-amine], the EC50 is reported as 5 to 20 µM. Work on COc1nc2nc(C(F)(F)F)[nH]c2cc1Nc1ccc(C(F)(F)F)cc1 [Compound 2-64, 5-methoxy-2-(trifluoromethyl)-N-(4-(trifluoromethyl)phenyl)-1H-imidazo[4,5-b]pyridin-6-amine] yielded an EC50 of 5 to 20 µM. Work on COc1nc2[nH]c(C(F)(F)F)nc2nc1Nc1ccc(C(C)(C)C)cc1 [Compound 2-19, 6-methoxy-N-(4-(tert-butyl)phenyl)-2-(trifluoromethyl)-1H-imidazo[4,5-b]pyrazin-5-amine] yielded an EC50 of 5 to 20 µM. With COc1nc2[nH]c(C(F)(F)F)nc2nc1Nc1cccc(C(F)(F)F)c1F [Compound 2-6, 6-methoxy-N-(2-fluoro-3-(trifluoromethyl)phenyl)-2-(trifluoromethyl)-1H-imidazo[4,5-b]pyrazin-5-amine] the EC50 was ≤ 5 µM. In the case of COc1nc2[nH]c(C(F)(F)F)nc2nc1Nc1ccc(C(F)(F)F)c(F)c1 [Compound 2-23, 6-methoxy-N-(3-fluoro-4-(trifluoromethyl)phenyl)-2-(trifluoromethyl)-1H-imidazo[4,5-b]pyrazin-5-amine], the EC50 is reported as > 20 µM. In the case of COc1nc2[nH]c(-c3ccccc3)nc2nc1Nc1ccc(OC(F)(F)F)cc1 [Compound 2-60, 6-methoxy-2-phenyl-N-(4-(trifluoromethoxy)phenyl)-1H-imidazo[4,5-b]pyrazin-5-amine], the EC50 is reported as > 20 µM. For COc1nc2[nH]c(C(F)(F)F)nc2cc1Nc1cccc(F)c1 [Compound 2-67, N-(3-fluorophenyl)-5-methoxy-2-(trifluoromethyl)-3H-imidazo[4,5-b]pyridin-6-amine], the EC50 was 5 to 20 µM. In the case of COc1nc2[nH]c(C(F)(F)F)nc2nc1Nc1ccc(OC(F)(F)F)cc1I [Compound 2-41, N-(2-iodo-4-(trifluoromethoxy)phenyl)-6-methoxy-2-(trifluoromethyl)-1H-imidazo[4,5-b]pyrazin-5-amine], the EC50 is reported as 5 to 20 µM. With COc1nc2[nH]c(C(F)(F)F)nc2cc1Nc1ccc(C)cc1 [Compound 2-73, 5-methoxy-N-(p-tolyl)-2-(trifluoromethyl)-3H-imidazo[4,5-b]pyridin-6-amine] the EC50 was > 20 µM. Compound COc1nc2[nH]c(C(F)(F)F)nc2nc1Nc1cccc(I)c1 [Compound 2-31, 6-methoxy-N-(3-iodophenyl)-2-(trifluoromethyl)-1H-imidazo[4,5-b]pyrazin-5-amine] has an EC50 of 5 to 20 µM. In the case of COc1nc2[nH]c(C(F)(F)F)nc2nc1Oc1ccc(C(F)(F)F)cc1 [Compound 2-40, 6-methoxy-2-(trifluoromethyl)-5-(4-(trifluoromethyl)phenoxy)-1H-imidazo[4,5-b]pyrazine], the EC50 is reported as ≤ 5 µM. COc1nc2nc(C(F)(F)F)[nH]c2nc1N(C)c1ccc(C(F)(F)F)cc1 [Compound 2-49, 5-methoxy-N-methyl-2-(trifluoromethyl)-N-(4-(trifluoromethyl)phenyl)-1H-imidazo[4,5-b]pyrazin-6-amine] was tested, and the EC50 was ≤ 5 µM. Compound CCCOc1nc2[nH]c(C(F)(F)F)nc2nc1Nc1ccc(OC(F)(F)F)cc1F [Compound 2-39, 6-propoxy-N-(2-fluoro-4-(trifluoromethoxy)phenyl)-2-(trifluoromethyl)-1H-imidazo[4,5-b]pyrazin-5-amine] has an EC50 of 5 to 20 µM. COc1nc2[nH]c(C(F)(F)F)nc2nc1Nc1cc(C(F)(F)F)cc(C(F)(F)F)c1 [Compound 2-8, 6-methoxy-(3,5-bis(trifluoromethyl)phenyl)-2-(trifluoromethyl)-1H-imidazo[4,5-b]pyrazin-5-amine] showed an EC50 of 5 to 20 µM. COc1nc2[nH]c(C(F)(F)F)nc2nc1Nc1ccc(-c2ccccc2)cc1 [Compound 2-18, N-([1,1′-biphenyl]-4-yl)-6-methoxy-2-(trifluoromethyl)-1H-imidazo[4,5-b]pyrazin-5-amine] was tested, and the EC50 was > 20 µM. COc1nc2[nH]c(C(F)(F)F)nc2nc1Nc1cc(C(F)(F)F)ccc1C [Compound 2-5, 6-methoxy-N-(2-methyl-5-(trifluoromethyl)phenyl)-2-(trifluoromethyl)-1H-imidazo[4,5-b]pyrazin-5-amine] gave an EC50 of 5 to 20 µM. In the case of COc1nc2[nH]c(C(F)(F)F)nc2cc1Nc1cccc(C(C)(C)C)c1 [Compound 2-70, N-(3-(tert-butyl)phenyl)-5-methoxy-2-(trifluoromethyl)-3H-imidazo[4,5-b]pyridin-6-amine], the EC50 is reported as > 20 µM. Work on Oc1nc2nc(-c3cccc(F)c3)oc2nc1Nc1ccccc1F [Compound 4-3, 2-(3-fluorophenyl)-6-((2-fluorophenyl)amino)oxazolo[4,5-b]pyrazin-5-ol] yielded an EC50 of 5 to 20 µM. Fc1ccccc1Oc1nc2nc(C(F)(F)F)[nH]c2nc1Nc1ccc(C(F)(F)F)cc1 [Compound 2-46, 5-(2-fluorophenoxy)-2-(trifluoromethyl)-N-(4-(trifluoromethyl)phenyl)-1H-imidazo[4,5-b]pyrazin-6-amine] was tested, and the EC50 was 5 to 20 µM. Work on COc1nc2[nH]c(C(F)(F)F)nc2nc1Nc1ccc(OC(F)(F)F)cc1Cl [Compound 2-42, N-(2-chloro-4-(trifluoromethoxy)phenyl)-6-methoxy-2-(trifluoromethyl)-1H-imidazo[4,5-b]pyrazin-5-amine] yielded an EC50 of 5 to 20 µM. For COc1nc2[nH]c(C(F)(F)F)nc2nc1Nc1cc(C(F)(F)F)ccc1F [Compound 2-3, 6-methoxy-N-(2-fluoro-5-(trifluoromethyl)phenyl)-2-(trifluoromethyl)-1H-imidazo[4,5-b]pyrazin-5-amine], the EC50 was > 20 µM. COc1nc2[nH]c(C(F)(F)F)nc2nc1Nc1cccc(OC(F)(F)F)c1 [Compound 2-4, 6-methoxy-N-(3-(trifluoromethoxy)phenyl)-2-(trifluoromethyl)-1H-imidazo[4,5-b]pyrazin-5-amine] showed an EC50 of 5 to 20 µM. With Oc1nc2nc(-c3cccc(F)c3)oc2nc1Nc1cc(C(F)(F)F)cc(C(F)(F)F)c1 [Compound 4-5, 6-((3,5-bis(trifluoromethyl)phenyl)amino)-2-(3-fluorophenyl)oxazolo[4,5-b]pyrazin-5-ol] the EC50 was 5 to 20 µM. With COc1nc2[nH]c(C(F)(F)F)nc2nc1Nc1ccc(OC(F)(F)F)cc1 [Compound 2-1, 6-methoxy-N-(4-(trifluoromethoxy)phenyl)-2-(trifluoromethyl)-1H-imidazo[4,5-b]pyrazin-5-amine] the EC50 was > 20 µM. With COc1nc2nc(C(F)(F)F)[nH]c2cc1Nc1ccc(-c2ccc(C(F)(F)F)nc2)cc1 [Compound 2-75, 5-methoxy-2-(trifluoromethyl)-N-(4-(6-(trifluoromethyl)pyridin-3-yl)phenyl)-1H-imidazo[4,5-b]pyridin-6-amine] the EC50 was 5 to 20 µM. Compound COc1nc2[nH]c(C(F)(F)F)nc2nc1Nc1ccc(C(C)(C)C)cc1F [Compound 2-33, 6-methoxy-N-(2-fluoro-4-(tert-butyl)phenyl)-2-(trifluoromethyl)-1H-imidazo[4,5-b]pyrazin-5-amine] has an EC50 of 5 to 20 µM. CCCCc1ccc(Nc2nc3nc(C(F)(F)F)[nH]c3nc2OC)cc1 [Compound 2-2, 6-methoxy-N-(4-(N-butyl)phenyl)-2-(trifluoromethyl)-1H-imidazo[4,5-b]pyrazin-5-amine] was tested, and the EC50 was 5 to 20 µM.
